The source of these data is patent US11020397B2, “Compounds and their use for reducing uric acid levels” (Acquist LLC, priority 2016, dated 2021).

Read-outs that look alike come from different tables or passages of the source.

By IC50 is commonly meant the concentration at which inhibition is half-maximal.

This assay deals with Xanthine oxidase (Homo sapiens (Human), UniProt P47989). Kind of assay: Fluorescence-based xanthine oxidase activity assay. The class given is biochemical. The conditions noted are these: for Xanthine oxidase inhibition, verbal rating: compared to allopurinol.
Chain of Xanthine oxidase (P47989 whole entry, species assumed): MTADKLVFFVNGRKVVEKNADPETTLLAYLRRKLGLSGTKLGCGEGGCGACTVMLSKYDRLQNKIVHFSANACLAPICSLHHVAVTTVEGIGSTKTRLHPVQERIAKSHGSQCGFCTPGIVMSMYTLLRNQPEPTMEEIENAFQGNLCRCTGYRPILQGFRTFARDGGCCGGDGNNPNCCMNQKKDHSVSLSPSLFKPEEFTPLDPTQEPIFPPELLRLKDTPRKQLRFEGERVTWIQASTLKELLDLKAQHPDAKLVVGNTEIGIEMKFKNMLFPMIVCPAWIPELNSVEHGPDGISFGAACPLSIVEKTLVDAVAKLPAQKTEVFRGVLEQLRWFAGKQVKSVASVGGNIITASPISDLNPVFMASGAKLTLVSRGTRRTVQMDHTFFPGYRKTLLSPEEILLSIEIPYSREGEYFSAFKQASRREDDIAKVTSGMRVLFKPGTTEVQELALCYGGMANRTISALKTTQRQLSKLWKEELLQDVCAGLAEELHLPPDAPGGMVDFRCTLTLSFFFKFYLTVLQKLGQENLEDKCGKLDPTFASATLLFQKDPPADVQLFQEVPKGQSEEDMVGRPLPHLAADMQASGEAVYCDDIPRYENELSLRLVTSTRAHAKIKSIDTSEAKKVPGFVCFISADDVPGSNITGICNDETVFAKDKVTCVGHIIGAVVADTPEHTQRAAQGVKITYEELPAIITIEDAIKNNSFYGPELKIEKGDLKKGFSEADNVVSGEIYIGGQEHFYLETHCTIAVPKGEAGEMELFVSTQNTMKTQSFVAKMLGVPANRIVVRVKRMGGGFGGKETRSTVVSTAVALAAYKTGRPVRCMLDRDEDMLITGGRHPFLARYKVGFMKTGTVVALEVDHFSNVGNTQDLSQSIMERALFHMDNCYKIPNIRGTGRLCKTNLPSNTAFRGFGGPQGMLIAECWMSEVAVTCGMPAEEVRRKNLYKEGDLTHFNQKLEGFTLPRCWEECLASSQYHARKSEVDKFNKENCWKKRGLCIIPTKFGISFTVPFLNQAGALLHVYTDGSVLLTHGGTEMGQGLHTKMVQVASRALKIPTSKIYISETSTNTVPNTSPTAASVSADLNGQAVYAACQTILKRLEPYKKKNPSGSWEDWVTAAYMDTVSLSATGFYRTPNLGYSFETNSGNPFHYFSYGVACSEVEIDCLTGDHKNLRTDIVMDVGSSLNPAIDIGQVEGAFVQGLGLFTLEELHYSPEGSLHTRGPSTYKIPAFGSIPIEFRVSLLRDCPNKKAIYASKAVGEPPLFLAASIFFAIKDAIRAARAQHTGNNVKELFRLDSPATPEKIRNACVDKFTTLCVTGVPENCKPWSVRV
Where [1] appears, read: unit nM, read-out: Xanthine Oxidase IC50.

In turn, `CSc1nc(O)c(C(=O)Nc2ccc(-c3c[nH]nn3)cc2OC(F)(F)F)c(=O)[nH]1` [Formula (II3), N-(4-(1H-1,2,3-triazol-4-yl)-2-(trifluoromethoxy)phenyl)-4-hydroxy-2-(methylthio)-6-oxo-1,6-dihydropyrimidine-5-carboxamide] returned an IC50 of 60 nM. The same measure, in the same setting: then `CSc1nc(O)c(C(=O)Nc2ccc(-c3c[nH]nn3)cc2OC(F)F)c(=O)[nH]1` [Formula (II4), N-(2-(difluoromethoxy)-4-(1H-1,2,3-triazol-4-yl)phenyl)-4-hydroxy-2-(methylthio)-6-oxo-1,6-dihydropyrimidine-5-carboxamide], with 60 nM; and `CSc1nc(O)c(C(=O)Nc2ccc(-c3c[nH]nn3)cc2C#N)c(=O)[nH]1` [Formula (II5), N-(2-cyano-4-(1H-1,2,3-triazol-4-yl)phenyl)-4-hydroxy-2-(methylthio)-6-oxo-1,6-dihydropyrimidine-5-carboxamide], with 40 nM.

With `CSc1nc(O)c(C(=O)Nc2ccc(-c3c[nH]nn3)c(C(F)(F)F)c2)c(=O)[nH]1` [Formula (II6), N-(4-(1H-1,2,3-Triazol-4-yl)-3-(trifluoromethyl)phenyl)-4-hydroxy-2-(methylthio)-6-oxo-1,6-dihydropyrimidine-5-carboxamide], the IC50 under setting [1] was more than 10000 nM. The molecule `CC(C)Sc1nc(O)c(C(=O)Nc2ccc(-c3c[nH]nn3)cc2C(F)(F)F)c(=O)[nH]1` [Formula (II7), N-(4-(1H-1,2,3-Triazol-5-yl)-2-(trifluoromethyl)phenyl)-4-hydroxy-2-(isopropyl-thio)-6-oxo-1,6-dihydropyrimidine-5-carboxamide] registered an IC50 of 70 nM. In the case of `CSc1nc(O)c(C(=O)Nc2ncc(-c3c[nH]nn3)cc2C(F)(F)F)c(=O)[nH]1` [Formula (II8), N-(5-(1H-1,2,3-triazol-4-yl)-3-(trifluoromethyl)pyridin-2-yl)-4-hydroxy-2-(methylthio)-6-oxo-1,6-dihydropyrimidine-5-carboxamide], the IC50 was found to be 60 nM.

Turning to `CSc1nc(O)c(C(=O)Nc2ccc3nc(-c4c[nH]nn4)ccc3c2)c(=O)[nH]1` [Formula (II10), N-(2-(1H-1,2,3-triazol-4-yl)quinolin-6-yl)-4-hydroxy-2-(methylthio)-6-oxo-1,6-dihydropyrimidine-5-carboxamide], inhibition was half-maximal at 190 nM (IC50).

In turn, `CSc1nc(O)c(C(=O)Nc2ccc(-c3c[nH]nn3)c(F)c2F)c(=O)[nH]1` [Formula (IIaa), N-(2,3-difluoro-4-(1H-1,2,3-triazol-4-yl)phenyl)-4,6-dihydroxy-2-(methylthio) pyrimidine-5-carboxamide] showed a 50% inhibitory concentration (IC50) of 103 nM. Same read-out and setting: then `CN(C)CCSc1nc(O)c(C(=O)Nc2ccc(-c3c[nH]nn3)cc2F)c(=O)[nH]1` [Formula (IIbb), 2-((2-(dimethylamino)ethyl)thio)-N-(2-fluoro-4-(1H-1,2,3-triazol-4-yl)phenyl)-4-hydroxy-6-oxo-1,6-dihydropyrimidine-5-carboxamide], with 206 nM. With `CC(C)Sc1nc(O)c(C(=O)Nc2ccc(-c3c[nH]nn3)cc2)c(=O)[nH]1` [Formula (IIi), N-(4-(1H-1,2,3-triazol-5-yl)phenyl)-4-hydroxy-2-(isopropylthio)-6-oxo-1,6-dihydropyrimidine-5-carboxamide], the “Xanthine oxidase inhibition, verbal rating” value (“Xanthine oxidase inhibition” below) is “particularly potent inhibitors of xanthine oxidase compared to allopurinol”. Under setting [1], the concentration for half-maximal inhibition (IC50) was less than 20 nM. Take `CSc1nc(O)c(C(=O)Nc2ccc(-c3c[nH]nn3)nc2)c(=O)[nH]1` [Formula (IIii), N-(6-(1H-1,2,3-triazol-4-yl)pyridin-3-yl)-4-hydroxy-2-(methylthio)-6-oxo-1,6-dihydropyrimidine-5-carboxamide]: the IC50 is 377 nM and the “Xanthine oxidase inhibition” value is given as “particularly potent inhibitors of xanthine oxidase compared to allopurinol”. Take `O=C(Nc1ccc(-c2c[nH]nn2)cc1)c1c(O)nc(SC(F)(F)F)[nH]c1=O` [Formula (IIj)]: the IC50 under setting [1] is more than 300000 nM. For the molecule `CCSc1nc(O)c(C(=O)Nc2ccc(-c3c[nH]nn3)cc2)c(=O)[nH]1` [Formula (IIl), N-(4-(1H-1,2,3-triazol-4-yl)phenyl)-2-(ethylthio)-4-hydroxy-6-oxo-1,6-dihydropyrimidine-5-carboxamide], the “Xanthine oxidase inhibition” value was “particularly potent inhibitors of xanthine oxidase compared to allopurinol”. Also, the IC50 under setting [1] was less than 20 nM.

`O=C(Nc1ccc(-c2c[nH]nn2)cc1)c1c(O)nc(SCC2CC2)[nH]c1=O` [Formula (IIo), N-(4-(1H-1,2,3-triazol-4-yl)phenyl)-2-((cyclopropylmethyl)thio)-4,6-dioxo-1,4,5,6-tetrahydropyrimidine-5-carboxamide]: half-maximal inhibition (IC50) required 1140 nM.

In the case of `CCSc1nc(O)c(C(=O)Nc2ccc(-c3nn[nH]n3)cc2)c(=O)[nH]1` [Formula (IIp), N-(4-(1H-tetrazol-5-yl)phenyl)-2-(ethylthio)-4-hydroxy-6-oxo-1,6-dihydropyrimidine-5-carboxamide], the IC50 was 200 nM and the “Xanthine oxidase inhibition” value is “particularly potent inhibitors of xanthine oxidase compared to allopurinol”.

As to `CC(C)CSc1nc(O)c(C(=O)Nc2ccc(-c3c[nH]nn3)cc2)c(=O)[nH]1` [Formula (IIq), N-(4-(1H-1,2,3-triazol-4-yl)phenyl)-4-hydroxy-2-(isobutylthio)-6-oxo-1,6-dihydropyrimidine-5-carboxamide], half-maximal inhibition (IC50) was put at 40 nM and the “Xanthine oxidase inhibition” value is recorded as “particularly potent inhibitors of xanthine oxidase compared to allopurinol”. The like results for `CSc1nc(O)c(C(=O)Nc2ccc(-c3c[nH]nn3)c(F)c2)c(=O)[nH]1` [Formula (IIr), N-(3-Fluoro-4-(1H-1,2,3-triazol-4-yl)phenyl)-4-hydroxy-2-(methylthio)-6-oxo-1,6-dihydropyrimidine-5-carboxamide] were, in that order, 210 nM and “particularly potent inhibitors of xanthine oxidase compared to allopurinol”. The like results for `CSc1nc(O)c(C(=O)Nc2ccc(-c3c[nH]nn3)cc2F)c(=O)[nH]1` [Formula (IIs), N-(2-Fluoro-4-(1H-1,2,3-triazol-4-yl)phenyl)-4-hydroxy-2-(methylthio)-6-oxo-1,6-dihydropyrimidine-5-carboxamide] were, in that order, 120 nM and “particularly potent inhibitors of xanthine oxidase compared to allopurinol”. Regarding `CSc1nc(O)c(C(=O)Nc2c(F)cc(-c3c[nH]nn3)cc2F)c(=O)[nH]1` [Formula (IIt), N-(2,6-Difluoro-4-(1H-1,2,3-triazol-4-yl)phenyl)-4-hydroxy-2-(methylthio)-6-oxo-1,6-dihydropyrimidine-5-carboxamide], the IC50 is 180 nM and the “Xanthine oxidase inhibition” value was “particularly potent inhibitors of xanthine oxidase compared to allopurinol”. In turn, `CC(C)Sc1nc(O)c(C(=O)Nc2ccc(-c3c[nH]nn3)cc2F)c(=O)[nH]1` [Formula (IIv), N-(2-Fluoro-4-(1H-1,2,3-triazol-4-yl)phenyl)-4-hydroxy-2-(isopropylthio)-6-oxo-1,6-dihydropyrimidine-5-carboxamide] came in with a half-maximal inhibitory concentration (IC50) of 100 nM. On the same count and under the same terms, then `CC(C)Sc1nc(O)c(C(=O)Nc2ccc(-c3c[nH]nn3)c(F)c2)c(=O)[nH]1` [Formula (IIw), N-(3-Fluoro-4-(1H-1,2,3-triazol-4-yl)phenyl)-4-hydroxy-2-(isopropylthio)-6-oxo-1,6-dihydropyrimidine-5-carboxamide], with 660 nM; and `O=C(Nc1ncc(-c2c[nH]nn2)s1)c1c(O)[nH]c(=O)[nH]c1=O` [Formula (Io), N-(5-(1H-1,2,3-Triazol-4-yl)thiazol-2-yl)-2,4,6-trihydroxypyrimidine-5-carboxamide], with 5300 nM.
